Results reported in patent US20190083420A1, “METHODS OF USING (2R, 6R)-HYDROXYN[…] (2S, 6S)-HYDROXYN[…] THE TREATMENT OF DEPRESSION, ANXIETY, ANHEDONIA, FATIGUE, SUICIDAL IDEATION, AND POST TRAUMATIC STRESS DISORDERS” (The Uinited States of America, as represented by the …, priority 2016, published 2019).
Entries after “also recorded” stand apart in the source; their conditions may differ.

Tests used:
Type in all cases: in vivo
[1] = system: mice; experiment: Pre-pulse inhibition of acoustic startle
Excerpt: Mice were individually tested in acoustic startle boxes (SR-LAB, San Diego Instruments). Following drug administration, mice were placed in the startle chamber for a 30-min habituation period. The experiment started with a further 5-min adaptation period during which the mice were exposed to a constant background noise (67 dB), followed by five initial startle stimuli (120 dB, 40 msec duration each). Subsequently, animals were exposed to five different trial types: pulse alone trials (120 dB, 40 msec duration), three pre-pulse trials of 76, 81 and 86 dB of white noise bursts (20 msec duration) preceding a 120 dB pulse by 100 msec, and background (67 dB) no-stimuli trials. Each of these trials was randomly presented five times. Ketamine's dose selection (30 mg/kg) was based on a dose-response study we performed in a previous study. The percentage pre-pulse inhibition (% PPI) was calculated using the following formula: [(magnitude on pulse alone trial—magnitude on pre-pulse+pulse trial)/magnitude on pulse alone trial]×100.

[2] = system: mice; experiment: Quantitative EEG, cortical oscillation power; conditions: for cortical gamma power: acute; for cortical gamma power / cortical alpha, beta, delta and theta oscillations: after i.p. 10 mg/kg
Description: EEG experiments were performed according to Raver et al., (Neuropsychopharmacology, 38, 2338-2347 (2013)) with minor modifications. Mice were anesthetized with isoflurane and kept under anesthesia throughout the surgery. An F20-EET radio-telemetric transmitter (Data Sciences International, Minneapolis, Minn.) was implanted subcutaneously and its leads implanted over the dura above the frontal cortex (1.7 mm anterior to bregma) and the cerebellum (6.4 mm posterior to bregma). Animals recovered from surgery for 7 days before recordings.
Mice were singly housed and acclimated to the behavioral room for 24 hours prior to EEG recordings. EEGs were recorded using the Dataquest A.R.T. acquisition system (Data Sciences International) with frontal EEG recordings referenced to the cerebellum. Baseline EEG (10 min) recordings were followed by an i.p. injection of saline, ketamine (10 mg/kg) or (2R,6R)-HNK (10 mg/kg) and 40 min of post-injection recordings.
ECoGs were analyzed using custom-written MATLAB scripts (Version 2012a, Mathworks, Mass.) and the mtspecgramc routine in the Chronux Toolbox (http://chronux.org; Mitra and Bokil, 2008). Oscillation power in each bandwidth (δ=1-3 Hz; θ=4-7 Hz; α=8-12 Hz; β=13-29 Hz; γ=30-80 Hz) was computed in 10 min bins from spectrograms for each animal.

[3] = system: Male C57BL/6J mice; experiment: Chronic social defeat stress and social interaction/avoidance test; conditions: for locomotor activity and total compartmental crosses in the social interaction test: following chronic social defeat stress; for reversal of social interaction deficits / social avoidance induced by chronic social defeat stress: single i.p. injection, re-test 24 hours following treatment
Description: Male C57BL/6J mice underwent a 10-day chronic social defeat stress paradigm. Briefly, experimental mice were introduced to the home cage (43 cm length×11 cm width×20 cm height) of a resident aggressive retired CD-1 breeder, prescreened for aggressive behaviors, for 10 min. Following this physical attack phase, mice were transferred and housed in the opposite side of the resident's cage divided by a Plexiglas perforated divider, in order to maintain continuous sensory contact. This process was repeated for 10 days. Experimental mice were introduced to a novel aggressive CD-1 mouse each day. On day 11, test mice were screened for susceptibility in a social interaction/avoidance choice test. The social interaction apparatus consisted of a rectangular three-chambered box (mouse conditioned-place preference chamber; Stoelting Co., Wood Dale, Ill., USA), see FIG. 7b) comprised of two equal sized end-chambers and a smaller central chamber. The social interaction/avoidance choice test consisted of two 5-min phases. During the habituation phase, mice explored the empty apparatus. During the test phase, two small wire cages (Galaxy Cup, Spectrum Diversified Designs, Inc., Streetsboro, Ohio, USA), one containing a “stranger” CD-1 mouse and the other one empty, were placed in the far corners of each chamber. The time spent interacting (nose within close proximity of the cage) with the “stranger” mouse versus the empty cage was analysed using TopScan video tracking software (CleverSys, Reston, Va.). Locomotor activity (total distance moved over 5 min) and number of total crosses into and out of the central chamber were also measured. The social interaction ratio was calculated by dividing the time spent interacting with the “stranger” by the time spent with the empty cage. Mice having a social interaction ratio higher than 1.0 were considered resilient and mice with a social interaction ratio lower than 1.0 were considered susceptible. On day 13 resilient and susceptible mice received an i.p. injection of either saline, (R,S)-KET (20 mg/kg; chosen based upon dose previously effective in C57BL/6J mice^31), MK-801 (0.1 mg/kg) or (2R,6R)-HNK (20 mg/kg). Mice were re-tested for social interaction/avoidance on […] (24 hours following treatment).

[4] = system: mice; experiment: Drug discrimination in ketamine-trained mice; conditions: for response rate of overall lever pressing per sec: drug discrimination paradigm
Description: Mice were food restricted until they reached 85% of their initial body weight and were maintained at 85% throughout the duration of the experiment Animals were trained to lever press for food (20 mg sucrose pellets; TestDiet, St. Luis, Mo., USA) in standard two lever-operant conditioning chambers (Coulbourn Instruments, Whitehall, Pa., USA), under a fixed-ratio 5 of reinforcement (FR5) in daily 30-min sessions. When stable responding was succeeded over 3 consecutive sessions (average of 40 training sessions), mice were trained to discriminate ketamine (10 mg/kg) from saline (7.5 ml/kg) under a double alternation schedule (e.g., ketamine, ketamine, saline, saline). The subjects received either ketamine (10 mg/kg; i.p.) or saline (7.5 ml/kg) 15 minutes prior to the start of the 30-minute session. […] Drug discrimination test sessions were conducted when mice reached the following criteria: (1) first FR5 completed on the correct lever, and (2)≥85% correct lever responding over the entire session. During the test sessions mice were administered with saline (7.5 ml/kg), ketamine (10 mg/kg), phencyclidine (PCP; 3 mg/kg) or (2R,6R)-HNK (10 and 50 mg/kg). […] Recording of responses and pellet delivery were controlled and calculated by an automated computer system (Graphic State v3.1; Coulbourn Instruments, Whitehall, Pa., USA).

Row | Structure (SMILES) | startle amplitude in the pre-pulse inhibition task ([1]; mouse, in vivo) | cortical gamma power ([2]; 10 mg/kg) | cortical alpha, beta, delta and theta oscillations [2] | locomotor home-cage activity during EEG recording ([2]; mouse, in vivo) | locomotor activity and total compartmental crosses in the social interaction test [3] | reversal of social interaction deficits / social avoidance induced by chronic social defeat stress [3] | response rate of overall lever pressing per sec [4] | pre-pulse inhibition (sensorimotor gating) ([1]; (2R,6R)-HNK up to 375 mg/kg) | cortical alpha, beta, delta and theta oscillations ([2]; 10 mg/kg) | ketamine-associated discriminative stimulus ([4]; mice trained to discriminate ketamine (10 mg/kg) from saline)
1 | CNC1(c2ccccc2Cl)CCCCC1=O (racemic) [ketamine, (R,S)-ketamine, reference compound] | not affected | acutely increases cortical gamma power | Neither (R,S)-KET, nor (2R,6R)-HNK altered | increased locomotor home-cage activity | without affecting | reversed social defeat stress-induced social avoidance behaviors | not changed |  |  | 
2 | N[C@@]1(c2ccccc2Cl)CCC[C@@H](O)C1=O [(2R,6R)-HNK, (2R,6R)-2-amino-2-(2-chlorophenyl)-6-hydroxycyclohexanone] |  | acutely increases cortical gamma power |  |  | not associated with changes | reversed social interaction deficits | not changed | did not induce 4e, pre-pulse inhibition deficits; also recorded: did not affect sensorimotor gating; also recorded: did not affect pre-pulse inhibition | without altering alpha, beta, delta or theta oscillations; also recorded: Neither (R,S)-KET, nor (2R,6R)-HNK altered | did not induce; also recorded: did not produce ketamine-related discrimination responses; also recorded: did not produce discriminative stimulus behaviors
